This note sets out measurements from US8999661B2, “Compositions for detecting cell death and methods of use thereof” (Dana-Farber Cancer Institute, Inc., priority 2008, dated 2015).

The subject of assay [1] is Ku812-Luc+ (BCR-ABL+CML blast crisis) cells. In words: In vivo imaging of chemotherapy-induced apoptosis (AMN107). Also noted: species or system mice. Conditions: 100 mg/kg IP; day 5. As to the method:
Subcutaneous tumors were established using Ku812-Luc+ (BCR-ABL+CML blast crisis) cells in NCr nude mice. When tumors were ˜1 cm, mice underwent bioluminescence imaging (BLI) to determine baseline tumor burden, followed by treatment with either AMN107 (nilotinib) at 100 mg/kg intraperitoneally (IP), or with vehicle. After 3 doses, animals were injected with 20 μg of LDH-Alexa750. Fluorescence imaging (FL) was performed 24 and 48 hrs after probe injection (day 4 and 5 of treatment) and BLI was repeated on day 5 of treatment (FIG. 9A).

Assay [2] deals with HeLa cells. In words: FACS staining of camptothecin-treated apoptotic HeLa cells. It is filed as cell-based. To be noted: for percent apoptotic cells as measured with the probe: camptothecin; for cell staining over time (FACS): 12 h, 24 h, annexin binding buffer; for uptake by apoptotic HeLa cells (FACS) / uptake by control untreated HeLa cells (FACS): FIG. 6. As to the method:
HeLa cells (5×10^5 in 10 cm plates) maintained in DMEM with 10% FBS were contacted with 5 μM camptothecin to induce apoptosis. Cell staining by FITC-labeled Annexin V (Abcam, Cambridge, Mass.) or Cy5.5-labeled chicken LDH (1 μL) prepared as described in Example 1, was measured by fluorescence-activated cell sorting (FACS) analysis (with cells in annexin binding buffer (Abcam)) 12 h, 24 h, and 48 h later. Untreated HeLa cells served as negative controls.
Staining by Annexin V is known to require the presence of calcium. […] HeLa cells treated with camptothecin to induce apoptosis as in Example 9 were stained with FITC-labeled Annexin V (Abcam, Cambridge, Mass.) or Cy5.5-labeled chicken LDH in calcium-containing Annexin buffer or in calcium-free PBS. Stained cells were analyzed by FACS analysis as in Example 9.
HeLa cells (5×10^5 in 10 cm plates) maintained in DMEM with 10% FBS were contacted with 5 μM camptothecin to induce apoptosis. Cell staining was done in the media: (i) annexin buffer, (ii) DMEM supplemented with 1% FBS; (iii) DMEM supplemented with 2% FBS; (iii) DMEM supplemented with 5% FBS; (iv) DMEM supplemented with 10% FBS. For cell staining FITC-labeled Annexin V (Abcam, Cambridge, Mass.) or Cy5.5-labeled chicken LDH (1 μL) prepared as described in Example 1, was used to for FACS analysis (cells in annexin binding buffer (Abcam)) 48 h later. Untreated HeLa cells served as negative controls. […]

In assay [3] the test system is apoptotic cells. In words: Staining requirements (temperature, calcium) of cLDHB and Annexin V. The class given is cell-based. The procedure:
To determine if cLDHB is actively transported into cells, staining was performed at room temperature and at 4° C.
A major limitation of Annexin V staining is the requirement for supra-physiological concentrations of calcium (Tait, J. F., D. F. Gibson, and C. Smith, Anal Biochem, 2004. 329: 112-9). To determine whether cLDHB staining required calcium, Annexin V and cLDHB staining was performed in PBS (without calcium or magnesium) or in Annexin Binding Buffer (with 2.5 mM calcium).

Assay [4] deals with apoptotic cells. As to the kind of experiment: Homogeneous multiwell apoptosis assay in normal growth medium. Conditions: e.g., RPMI with 10% FBS, flow cytometry or High-Content Microscopy. The class given is cell-based. Background: Flow cytometry measures light scatter and fluorescence of single cells or particles in a stream.
Assay [5] relates to HeLa cells. As to the kind of experiment: Confocal microscopy of stained apoptotic HeLa cells. The class given is cell-based.
A further assay concerns RS4;11 cells. As to the kind of experiment: FACS staining of RS4;11 cells treated with NVP-LAQ824. To be noted: RS4;11, 50 nM NVP-LAQ824, 24 h. The class given is cell-based. The procedure:
RS4;11 is a MLL-AF4 fusion transcript-positive t(4;11) pre-B ALL cell line that is highly resistant to chemotherapy and radiation. In this experiment RS4;11 cells (1×10^6) were treated with 50 nM NVP-LAQ824 (Novartis Pharma, Basel, Switzerland) for 24 h and then contacted with FITC-labeled Annexin V (Abcam, Cambridge, Mass.) or Cy5.5-labeled chicken LDH and analyzed by FACS as in Example 9. NVP-LAQ824 is a potent hydroxamic acid-derived histone deacetylase inhibitor that induces apoptosis in nanomolar concentrations in myeloid leukemia cell lines, multiple myeloma, and patient samples. Catley L et al. (2003) Blood 102:2615-22.
In a related experiment, RS4;11 cells were treated with 50 nM NVP-LAQ824 in culture media for 24 h and then stained with FITC-labeled Annexin V or A680-labeled human LDH-B in either Annexin buffer or culture media. Apoptosis was measured by FACS analysis. Results indicated a significant difference between 11-12 percent apoptotic cells as measured with FITC-labeled Annexin V in Annexin buffer versus only 4 percent apoptotic cells as measured with FITC-labeled Annexin V in culture media. In contrast, results indicated 11-12 percent apoptotic cells as measured with A680-labeled LDH-B, whether in Annexin buffer or culture media.

For assay [6], the system named is THP-1 cells. As to the kind of experiment: Competition for Annexin V and LDHB binding to apoptotic THP-1 cells. To be noted: probe 0.1 μM; for staining of apoptotic cells in the presence of excess unlabeled Annexin V: 5- and 10-fold excess. It is filed as cell-based. The procedure: To determine whether physiological levels of LDH may preclude binding of a LDH probe, the ability of excess unlabeled cLDHB and Annexin V to compete for binding of apoptotic cells by FITC conjugated Annexin V and cLDHB was assessed.
Apoptosis was induced in THP-1 cells with LAQ824 (50 nM, 18 hrs), and cells were stained with either Annexin V-FITC or cLDHB-FITC at a final concentration of 0.1 μM. For competition, staining was performed in the presence of excess unlabeled LDHB or Annexin V.

Assay [7] relates to THP-1 cells. As to the kind of experiment: Staining of THP-1 cells treated with HDAC inhibitor LAQ824. The class given is cell-based. To be noted: THP-1, LAQ824 50 nM, 18 hrs. The procedure:
To correlate cLDHB staining with other measures of apoptosis, a fluorescent probe that binds to activated caspases (pan-caspase-FLICA, Immunochemistry Tech) was used. THP-1 cells were treated with the HDAC inhibitor LAQ824 (50 nM, 18 hrs) to induce apoptosis.
Similarly, we asked whether the […] proteins performed comparably to purified recombinant LDH.

The mark [8] stands for this setting: calcium-containing Annexin V buffer.

Regarding `Cc1cn(-c2cc(NC(=O)c3ccc(C)c(Nc4nccc(-c5cccnc5)n4)c3)cc(C(F)(F)F)c2)cn1` [AMN107, nilotinib], in assay [1], the “difference between treated animals and vehicle-treated controls by BLI” value came to 2 log; the “tumor response by BLI” value was “tumor regression”.
Consider “Annexin V: fluorescently labeled Annexin V probe used as comparator; FITC-labeled in Example 12 [reference compound]”, for which the “percent apoptotic cells as measured with the probe” value in the assay with HeLa cells [2] (FBS 10 percent, HeLa, 48 h) was “about 15%”; with HeLa cells [2] (FBS zero, HeLa, 48 h), “about 50%”. Besides, in the assay on HeLa cells [2] (HeLa treated with camptothecin), the “change of staining with increasing amounts of FBS (FACS)” value is “significantly decreased”. The “staining in PBS (without calcium or magnesium) compared to Annexin Binding Buffer (2.5 mM calcium)” value with apoptotic cells [3] is “significantly decreased”. The “staining / quantification of apoptosis with probe added directly to normal growth medium” value in the assay with apoptotic cells [4] was “No Annexin V staining”.
Regarding “Cy5.5-labeled Annexin V: Cy5.5-labeled Annexin V (Abcam) [reference compound]”, the “staining pattern (confocal microscopy)” value with HeLa cells [5] is reported as “membranous”.
On to “Cy5.5-labeled chicken LDH: chicken lactate dehydrogenase (LDH-B) labeled with Cy5.5 N-hydroxysuccinimide ester as described in Example 1”, for which the “proportion of apoptotic cells detected compared to FITC-labeled Annexin V” value with HeLa cells [2] (HeLa, 5 μM camptothecin) was “comparable”. In addition, the “cell staining over time (FACS)” value in the assay with HeLa cells [2] (HeLa, 5 μM camptothecin, 48 h) is “progressively stained positive”. The “staining of apoptotic cells (FACS)” value is “strongly and equally positive” in the assay on HeLa cells [2] (setting [8]); “strongly and equally positive” in the assay on HeLa cells [2] (calcium-free PBS). Further, the “percent apoptotic cells as measured with the probe” value with HeLa cells [2] (over the range FBS zero to 10 percent, HeLa, 48 h) is listed as “about 65%”. Also, the “staining pattern (confocal microscopy)” value with HeLa cells [5] is “punctate cytoplasmic”. The “apoptosis over background levels as measured with the probe” value in the assay with RS4;11 cells is given as “only a mild increase”. In addition, in the assay with RS4;11 cells, the “staining compared to FITC-Annexin V” value is on record as “comparable”.
For the molecule “FITC-labeled Annexin V: FITC-labeled Annexin V (Abcam), phosphatidylserine-binding apoptosis probe [reference compound]”, in the assay on HeLa cells [2] (HeLa, 5 μM camptothecin, 48 h), the “cell staining over time (FACS)” value is on record as “progressively stained positive”. Further, the “staining of apoptotic cells (FACS)” value in the assay on HeLa cells [2] (setting [8]) is given as “strongly positive”; with HeLa cells [2] (calcium-free PBS), “essentially not at all”. In addition, the “staining pattern (confocal microscopy)” value in the assay on HeLa cells [5] is recorded as “membranous”. In addition, the “apoptosis over background levels as measured with the probe” value in the assay on RS4;11 cells is recorded as “only a mild increase”. Besides, the “apoptotic cells as measured with the probe” value with RS4;11 cells (staining in culture media) was 4%. Besides, in the assay with THP-1 cells [6], the “staining of apoptotic cells in the presence of excess unlabeled Annexin V” value is given as “abrogated”.
Take “FITC-labeled chicken LDH: chicken LDH-B labeled with fluorescein isothiocyanate”: the “staining pattern (confocal microscopy)” value in the assay on HeLa cells [5] is listed as “punctate cytoplasmic”. Further, in the assay with THP-1 cells [6], the “staining of apoptotic cells in the presence of excess unlabeled Annexin V” value is on record as “no effect”. The “staining of apoptotic cells in the presence of excess unlabeled LDHB” value in the assay on THP-1 cells [6] (up to 100-(10 μM) and 350-fold (35 μM) excess) is “only marginally altered”.
As to “LDHB: LDHB not fused to GST, served as a positive control”, in the assay with HeLa cells [2] (HeLa, 5 μM camptothecin, 48 h, FIG. 5), the “uptake by / staining of apoptotic cells (FACS)” value is “stained apoptotic cells”.
Take “cLDHB-A680: chicken LDHB labeled with A680 (Alexa 680)”: in the assay with THP-1 cells [7], the “coincidence of staining with caspase activation (pan-caspase-FLICA)” value is listed as “entirely coincident”.

B1: labeled MDH: Cy5.5-labeled E. coli malate dehydrogenase (Alexa 680-labeled per FIG. 6 legend) (conjugate, UniProt P61889 1-312, looked up)
Malate dehydrogenase: MKVAVLGAAGGIGQALALLLKTQLPSGSELSLYDIAPVTPGVAVDLSHIPTAVKIKGFSGEDATPALEGADVVLISAGVARKPGMDRSDLFNVNAGIVKNLVQQVAKTCPKACIGIITNPVNTTVAIAAEVLKKAGVYDKNKLFGVTTLDIIRSNTFVAELKGKQPGEVEVPVIGGHSGVTILPLLSQVPGVSFTEQEVADLTKRIQNAGTEVVEAKAGGGSATLSMGQAAARFGLSLVRALQGEQGVVECAYVEGDGQYARFFSQPLLLGKNGVEERKSIGTLSAFEQNALEGMLDTLKKDIALGEEFVNK
modifications: Cy5.5 or Alexa 680 label
On to B1, for which, in the assay with HeLa cells [2] (5 μM camptothecin), the “uptake by apoptotic HeLa cells (FACS)” value is reported as “taken up”. Further, the “uptake by control untreated HeLa cells (FACS)” value in the assay with HeLa cells [2] was “not by control untreated HeLa cells”.

B2: labeled ADH: Cy5.5-labeled yeast alcohol dehydrogenase (Alexa 680-labeled per FIG. 6 legend) (conjugate, UniProt P00330 2-348, looked up)
Alcohol dehydrogenase 1: SIPETQKGVIFYESHGKLEYKDIPVPKPKANELLINVKYSGVCHTDLHAWHGDWPLPVKLPLVGGHEGAGVVVGMGENVKGWKIGDYAGIKWLNGSCMACEYCELGNESNCPHADLSGYTHDGSFQQYATADAVQAAHIPQGTDLAQVAPILCAGITVYKALKSANLMAGHWVAISGAAGGLGSLAVQYAKAMGYRVLGIDGGEGKEELFRSIGGEVFIDFTKEKDIVGAVLKATDGGAHGVINVSVSEAAIEASTRYVRANGTTVLVGMPAGAKCCSDVFNQVVKSISIVGSYVGNRADTREALDFFARGLVKSPIKVVGLSTLPEIYEKMEKGQIVGRYVVDTSK
modifications: Cy5.5 or Alexa 680 label
Take B2: in the assay with HeLa cells [2] (5 μM camptothecin), the “uptake by apoptotic HeLa cells (FACS)” value is “taken up”. For the same molecule, in the assay on HeLa cells [2], the “uptake by control untreated HeLa cells (FACS)” value is listed as “not by control untreated HeLa cells”.
